Results: patent US4724233A, “Therapeutical application of phosphonylmethoxyalkyl adenines” (Stichting Rega VZW, priority 1985, dated 1988)
Converted amounts (≈) assume the structure as drawn. Where two headings read alike, the source gives them in different places.

What was measured:
[1] = system: HSV-2 (strain) Lyons; test: inhibition of cytopathic effect of HSV-2 strain Lyons; assay type: cell-based, herpes simplex virus type 2; details: Table 4, HSV-2 Lyons, PRK cells; for EC50: Human alphaherpesvirus 2, read-out: MIC50
[2] = system: HSV-1 (strain) McIntyre; test: inhibition of cytopathic effect of HSV-1 strain McIntyre; assay type: cell-based, herpes simplex virus type 1; details: Table 4, HSV-1 McIntyre, PRK cells; for EC50: Human alphaherpesvirus 1, read-out: MIC50
[3] = system: Herpes simplex 2 (G); test: inhibition of cytopathic effect of herpes simplex 2 (G); assay type: cell-based, herpes simplex virus type 2; details: PRK cells; for EC50: Human alphaherpesvirus 2, PRK, read-out: MIC50
[4] = system: Herpes simplex I (KOS); test: inhibition of cytopathic effect of herpes simplex 1 (KOS); assay type: cell-based, herpes simplex virus type 1; details: PRK cells; for EC50: Human alphaherpesvirus 1, read-out: MIC50
[5] = system: HSV-2 (strain) 196; test: inhibition of cytopathic effect of HSV-2 strain 196; assay type: cell-based, herpes simplex virus type 2; details: Table 4, HSV-2 196, PRK cells; for EC50: Human alphaherpesvirus 2, read-out: MIC50
[6] = system: HSV-1 (strain) F; test: inhibition of cytopathic effect of HSV-1 strain F; assay type: cell-based, herpes simplex virus type 1; details: Table 4, HSV-1 F, PRK cells; for EC50: Human alphaherpesvirus 1, read-out: MIC50
[7] = system: vaccinia virus (VV); assay type: cell-based; details: PRK cells, average of two determinations
[8] = system: Reovirus; test: inhibition of cytopathic effect of reovirus; assay type: cell-based; details: Table 3, Vero B cells; for EC50: Reovirus sp., read-out: MIC50
[9] = system: Vaccinia; test: microbe, parasite or virus in culture; assay type: cell-based; details: for EC50: Orthopoxvirus vaccinia, PRK, read-out: MIC50
[10] = system: HSV-1 (strain) TK^- C1101; test: inhibition of cytopathic effect of HSV-1 TK- strain C1101; assay type: cell-based, herpes simplex virus type 1; details: for EC50: Human alphaherpesvirus 1, PRK, read-out: MIC50
[11] = system: PRK cells; test: antimetabolic activity: incorporation of 3H-labeled precursors into primary rabbit kidney cells
[12] = system: Polio 1; test: microbe, parasite or virus in culture; assay type: cell-based; details: for EC50: HeLa, read-out: MIC50
[13] = system: Sindbis; test: inhibition of cytopathic effect of Sindbis; assay type: cell-based; details: Table 3, Vero B cells; for EC50: read-out: MIC50
[14] = system: Vesicular stomatitis; test: microbe, parasite or virus in culture; assay type: cell-based; details: for EC50: read-out: MIC50
[15] = system: herpes simplex virus type 1 (HSV-1) (strain KOS); assay type: cell-based; details: PRK cells
[16] = system: Measles; test: inhibition of cytopathic effect of measles; assay type: cell-based; details: Table 3, Vero Flow cells; for EC50: Measles morbillivirus, read-out: MIC50
[17] = system: Moloney sarcoma; test: inhibition of Moloney sarcoma virus; assay type: cell-based, Moloney mouse sarcoma virus; details: Table 3, MO cells; for EC50: Mus musculus, read-out: MIC50
[18] = system: PRK cells; details: 72 h
[19] = system: Parainfluenza 3; test: inhibition of cytopathic effect of parainfluenza 3; assay type: cell-based; details: Table 3, Vero B cells; for EC50: read-out: MIC50
[20] = system: Coxsackie B4; test: inhibition of cytopathic effect of Coxsackie B4; assay type: cell-based; details: Table 3, Vero B, HeLa cells; for EC50: Enterovirus B, B4, read-out: MIC50
[21] = antimetabolic activity: incorporation of 3H-labeled precursors into primary rabbit kidney cells; details: rabbit, prk cells
[22] = in vitro; details: rabbit, prk cells
[23] = system: HSV-1 (strain) TK^- B2006; test: inhibition of cytopathic effect of HSV-1 TK- strain B2006; assay type: cell-based, herpes simplex virus type 1; details: Human alphaherpesvirus 1, PRK, read-out: MIC50
[24] = in vitro; details: rabbit, prk cells; remark: listed apart in the source
[25] = 48 h, 10 μg/ml (value in parentheses)

SMILES: O=c1[nH]c(=O)n([C@H]2C[C@H](O)[C@@H](CO)O2)cc1I [IDU, 5-iodo-2'-deoxyuridine, reference compound]
- EC50 [1]: 0.2 µg/mL (≈ 0.565 µM)
- EC50 [2]: 0.2 µg/mL (≈ 0.565 µM)
- EC50 ([3]; Table 4, HSV-2 G): 0.2 µg/mL (≈ 0.565 µM)
- EC50 ([4]; Table 4, HSV-1 KOS): 0.2 µg/mL (≈ 0.565 µM)
- EC50 [5]: 2 µg/mL (≈ 5.65 µM)
- EC50 [6]: 0.2 µg/mL (≈ 0.565 µM)

SMILES: Nc1ncnc2c1ncn2CC1COP(=O)(O)CO1 (racemic) [No. 5, 2',3'-cyclic O-phosphonylmethyl ether of (RS)-9-(2,3-dihydroxypropyl)adenine]
- MIC50 [1]: 15 µg/mL (≈ 52.6 µM)
- MIC50 [2]: 30 µg/mL (≈ 105 µM)
- MIC50 ([3]; Table 3): 30 µg/mL (≈ 105 µM)
- Titer of VV ([7]; 1 h, 100 μg/ml): 1.6 log10 PFU/ml
- Titer of VV ([7]; 24 h, 100 μg/ml): 1.8 log10 PFU/ml
- Titer of VV [7, 25]: < 1.3 log10 PFU/ml
- Titer of VV ([7]; 48 h, 100 μg/ml): < 1.3 log10 PFU/ml
- Titer of VV ([7]; 72 h, 100 μg/ml): 1.5 log10 PFU/ml
- MIC50 [8]: > 200 µg/mL
- MIC50 ([9]; Table 3, PRK cells): 0.7 to 3.0 µg/mL
- MIC50 ([4]; Table 3): 30 µg/mL (≈ 105 µM)
- MIC50 ([10]; Table 4, HSV-1 TK^- C1101, PRK cells): 7 µg/mL (≈ 24.5 µM)
- MIC50 [5]: 15 µg/mL (≈ 52.6 µM)
- ID50 dUrd incorporation ([11]; (3H-1',2')dUrd): ≥ 360 µg/mL
- ID50 Leu incorporation ([11]; (3H-4,5)Leu): > 400 µg/mL
- ID50 Urd incorporation ([11]; (3H-5)Urd): > 400 µg/mL
- ID50 dThd incorporation ([11]; (3H-methyl) dThd): ≥ 390 µg/mL
- MIC50 ([12]; Table 3, HeLa cells): > 400 µg/mL
- MIC50 [13]: > 400 µg/mL
- MIC50 ([14]; Table 3, HeLa, PRK cells): > 400 µg/mL
- Titer of HSV-1 ([15]; 24 h, 100 μg/ml): < 1.3 log10 PFU/ml
- Titer of HSV-1 [15, 25]: 6.04 log10 PFU/ml
- Titer of HSV-1 ([15]; 48 h, 100 μg/ml): 2.8 log10 PFU/ml
- MIC50 [16]: > 100 µg/mL
- MIC50 [17]: > 200 µg/mL
- MCC (minimal cytotoxic concentration) [18]: > 400 µg/mL
- MIC50 [19]: > 400 µg/mL
- MIC50 [20]: > 400 µg/mL
- MIC50 [6]: 30 µg/mL (≈ 105 µM)

SMILES: Nc1ncnc2c1ncn2CC(O)COCP(=O)(O)O (racemic) [No. 2, (RS)-9-(2-hydroxy-3-phosphonylmethoxypropyl)-adenine]
- EC50 [1]: 10 to 15 µg/mL (≈ 33 to 49.5 µM)
- EC50 [2]: 10 to 15 µg/mL (≈ 33 to 49.5 µM)
- EC50 ([3]; Table 3): 10 to 15 µg/mL (≈ 33 to 49.5 µM)
- EC50 ([3]; Table 4, HSV-2 G): 10 to 15 µg/mL (≈ 33 to 49.5 µM)
- Titer of VV ([7]; 1 h, 100 μg/ml): 2.2 log10 PFU/ml
- Titer of VV ([7]; 24 h, 100 μg/ml): 2.2 log10 PFU/ml
- Titer of VV [7, 25]: < 1.3 log10 PFU/ml
- Titer of VV ([7]; 48 h, 100 μg/ml): 2.0 log10 PFU/ml
- Titer of VV ([7]; 72 h, 100 μg/ml): 1.8 log10 PFU/ml
- EC50 [8]: > 200 µg/mL
- EC50 [9]: 0.3 to 1 µg/mL (≈ 0.989 to 3.3 µM)
- EC50 ([4]; Table 3): 2 to 10 µg/mL (≈ 6.6 to 33 µM)
- MIC50 ([4]; Table 4, HSV-1 KOS): 2 to 10 µg/mL
- EC50 [10]: 7 µg/mL (≈ 23.1 µM)
- EC50 [5]: 10 to 15 µg/mL (≈ 33 to 49.5 µM)
- IC50 ([21]; ID50 Leu incorporation, (3H-4,5)Leu): > 400 µg/mL
- IC50 ([21]; ID50 Urd incorporation, (3H-5)Urd): > 400 µg/mL
- IC50 ([21]; ID50 dThd incorporation, (3H-methyl) dThd): 280 µg/mL (≈ 923 µM)
- IC50 ([21]; ID50 dUrd incorporation, (3H-1',2')dUrd): > 400 µg/mL
- EC50 [12]: > 400 µg/mL
- EC50 [13]: > 400 µg/mL
- EC50 [14]: > 400 µg/mL
- Titer of HSV-1 ([15]; 24 h, 100 μg/ml): < 1.3 log10 PFU/ml
- Titer of HSV-1 [15, 25]: < 6.0 log10 PFU/ml
- Titer of HSV-1 ([15]; 48 h, 100 μg/ml): < 1.3 log10 PFU/ml
- EC50 [16]: > 20 µg/mL
- MCC at 72 h [22]: > 400 µg/mL
- EC50 [17]: 4.5 µg/mL (≈ 14.8 µM)
- EC50 [19]: > 200 µg/mL
- EC50 [20]: > 400 µg/mL
- EC50 [6]: 10 to 15 µg/mL (≈ 33 to 49.5 µM)

SMILES: Nc1ncnc2c1ncn2CCOCP(=O)(O)O [No. 6, 9-(2-phosphonylmethoxyethyl)adenine]
- EC50 [1]: 15 µg/mL (≈ 54.9 µM)
- EC50 [2]: 30 µg/mL (≈ 110 µM)
- EC50 ([3]; Table 3): 7 µg/mL (≈ 25.6 µM)
- Titer of VV ([7]; 48 h, 100 μg/ml): 5.54 log10 PFU/ml
- EC50 [8]: > 400 µg/mL
- EC50 [23]: 3 µg/mL (≈ 11 µM)
- EC50 [9]: 300 µg/mL (≈ 1100 µM)
- EC50 ([4]; Table 3): 15 to 30 µg/mL (≈ 54.9 to 110 µM)
- MIC50 ([4]; Table 4, HSV-1 KOS): 15 to 30 µg/mL
- EC50 [10]: 7 µg/mL (≈ 25.6 µM)
- EC50 [5]: 15 µg/mL (≈ 54.9 µM)
- IC50 ([24]; ID50 Leu incorporation): > 400 µg/mL
- IC50 ([24]; ID50 Urd incorporation): > 400 µg/mL
- IC50 ([24]; ID50 dThd incorporation): 242 µg/mL (≈ 886 µM)
- IC50 ([24]; ID50 dUrd incorporation): 114 µg/mL (≈ 417 µM)
- EC50 [12]: > 400 µg/mL
- EC50 [13]: > 400 µg/mL
- EC50 [14]: > 400 µg/mL
- Titer of HSV-1 ([15]; 24 h, 100 μg/ml): < 1.3 log10 PFU/ml
- Titer of HSV-1 [15, 25]: 6.36 log10 PFU/ml
- Titer of HSV-1 ([15]; 48 h, 100 μg/ml): 3.34 log10 PFU/ml
- EC50 [16]: > 400 µg/mL
- MCC at 72 h [22]: ≥ 200 µg/mL
- EC50 [17]: 0.67 µg/mL (≈ 2.45 µM)
- EC50 [19]: > 400 µg/mL
- EC50 [20]: > 200 µg/mL
